The text below walks through data of article PMC6179045, “Design, synthesis and biological evaluation of tricyclic pyrazolo[1,5-c][1,3]benzoxazin-5(5H)-one scaffolds as selective BuChE inhibitors” (Journal of Enzyme Inhibition and Medicinal Chemistry, 2018).

A word on the viability: it is a read-out of living cells in per cent, often relative to untreated cells. In general, Ki refers to the equilibrium dissociation constant of an inhibitor or competing ligand from its target. In general, IC50 refers to the concentration that gives 50% inhibition. For orientation: logP means a log measure of how a compound divides between an organic and an aqueous phase. Low readings indicate lower lipophilicity, high ones higher lipophilicity. Usually inhibition stands for the drop in the measured response relative to a control, in per cent.

Data set [1] can be described thus: Cytotoxicity MTT assay in PC12 cells. The format is cell-based. The note with it: rat, 1-50 µM, read-out: relative cell viability (cytotoxicity). The method, then: PC12 cells were used to evaluate cell cytotoxicity by methyl thiazolyl tetrazolium (MTT) assay. PC12 cells were cultured in DMEM containing 10% fetal bovine serum, 100 µg/ml streptomycin and 100 units/ml penicillin at 37 °C in a 5% CO2 humidified atmosphere, and inoculated at 1 × 10^4 cells per well in 96-well plate. After cultured for 24 h, the cells were treated with different concentration of compounds in DMEM for 24 h. Then 20 µl of 0.5 mg/ml MTT reagent was added into the cells and incubated for 4 h. After 4 h, cell culture was removed and then 150 µl DMSO was added to dissolve the formazan. The optical density was measured at 570 nm (OD570). Cell viability was calculated from three independent experiments. OD570 of formazan in blank group was set as 100% of viability.
Blank: cultured with fresh medium only.
A general note: Tetrazolium assays rely on reduction of a dye to a coloured formazan, in cell work by metabolically active cells.

Another data set has as its target T1, eqBuChE (Equus caballus, UniProt P81908).
T1 construct: BuChE from equine serum (C4290-1KU; Sigma); purchased Sigma C4290-1KU; host or cells: equine serum
Briefly: Kinetic study of eqBuChE inhibition (Lineweaver-Burk plots). Type of data set: biochemical, equine (horse). How it is done:
. The kinetic type of enzyme inhibition was obtained through the modified Ellman’s method and Lineweaver–Burk secondary plots. Apparent inhibition constants and kinetic parameters were calculated within the “Enzyme kinetics” module of Prism 5.
The kinetic studies were carried out at three fixed inhibitor concentrations (5, 10 and 20 µM).

The target of data set [2] is T2, BuChE from equine serum (eqBuChE) (Equus caballus, UniProt P81908).
T2 construct: BuChE from equine serum (C4290-1KU; Sigma); purchased Sigma C4290-1KU; host or cells: equine serum
Briefly: BuChE activity assay (modified Ellman's method). The format is biochemical, equine (horse). To be noted: BuChE from horse serum; mean ± SEM, n = 3. The method, then:
(§1) Enzymatic activity assays were performed on AChE from electric eel (C3389-500UN; Sigma) and BuChE from equine serum (C4290-1KU; Sigma), according to Ellman’s method with light modification. The experiment was performed in 48-well plates in a final volume of 500 µl. Each well contained 0.036 U/ml of EeAChE or eqBuChE, and 0.1 M pH = 8 phosphate buffer. They were incubated for 20 min at different concentrations of test compound at 37 °C. […] The DTNB produced the yellow anion 5-thio-2-nitrobenzoic acid along with the enzymatic degradation of acetylthiocholine or butyrylthiocholine. The absorbance of each assay was measured at 410 nm after 20 min in a Biotek Synergy HTX Multi-Mode reader. The IC50 values were calculated graphically from inhibition curves (log inhibitor concentration vs percent of inhibition). A control experiment was performed under the same conditions without inhibitor and the blank contained buffer, DMSO, DTNB and substrate.
For orientation: Ellman's reagent forms a yellow product with free thiols.

Data set [3] concerns differentiated PC12 cells. In words: Neuroprotective effect against H2O2-induced damage in differentiated PC12 cells. Type of data set: cell-based. The note with it: Rattus norvegicus, PC-12, 25 µM compound 3 h before H2O2 (300 µM), 24 h, MTT, p < .05 vs. H2O2 alone, read-out: cell viability (neuroprotective activity). The method, then: The differentiated PC12 cells and oxidative agent H2O2 were used as in vitro model to assess neuronal differentiation and neurobiochemical and neurobiological properties[39]^,[44]. Differentiated PC12 cells were incubated with different concentrations of compounds 6a and 6g for 3 h before treatment with H2O2 (300 µM). Cell viability was measured after 24 h using MTT method. Briefly, 20 µL of 0.5 mg/ml MTT reagent was added into the cells and incubated for 4 h. After 4 h, cell culture was removed and then 150 µl DMSO was added to dissolve the formazan. OD570 value was measured at 570 nm on the Biotek Synergy HTX Multi-Mode reader. Results were adjusted by OD570 value in the blank.
. The differentiated PC12 cells were pretreated with three concentrations (10, 25 and 50 µM) for 3 h, before treatment with H2O2 (300 µM), and cell viability was measured after 24 h using MTT method. […]. Neuroprotective activity of compounds 6a and 6g […] was evaluated by subjecting PC12 cells to H2O2-induced damage. […]

Data set [4] can be described thus: Log P assessment (shake flask method, octanol/PBS). Type of data set: physicochemical. The note with it: octanol/PBS pH 7.4, shake flask, 37 °C. How it is done:
Log P, defined as the logarithm of octanol–water partition coefficient, is an important parameter to evaluate lipophilicity of compounds[45]. It can be calculated by determining the concentration of compound in octanol phase and water phase until the partition equilibrium was completed. In this work, log P of title compounds was measured by the shake flask method with slight modification. PBS (pH = 7.4) was used as the water. Both the octanol and the aqueous phase were saturated with each other before use. The assay mixture containing test compounds was shaken at 37 °C. After 24 h, the mixture was centrifuged at 4,000 rpm for 30 min, followed by the measurement with UV spectrophotometer. Experiments were conducted in triplicate and log p values were calculated.

Data set [5] has as its target T3, AChE from electric eel (EeAChE) (Electrophorus electricus, UniProt O42275).
T3 construct: AChE from electric eel (C3389-500UN; Sigma); purchased Sigma C3389-500UN
Briefly: AChE activity assay (modified Ellman's method). The format is biochemical. To be noted: AChE from electric eel; 20 µM compound; read-out: inhibition % at 20 µM AChE. The method, then:
as §1

T1 sequence (P81908 whole entry): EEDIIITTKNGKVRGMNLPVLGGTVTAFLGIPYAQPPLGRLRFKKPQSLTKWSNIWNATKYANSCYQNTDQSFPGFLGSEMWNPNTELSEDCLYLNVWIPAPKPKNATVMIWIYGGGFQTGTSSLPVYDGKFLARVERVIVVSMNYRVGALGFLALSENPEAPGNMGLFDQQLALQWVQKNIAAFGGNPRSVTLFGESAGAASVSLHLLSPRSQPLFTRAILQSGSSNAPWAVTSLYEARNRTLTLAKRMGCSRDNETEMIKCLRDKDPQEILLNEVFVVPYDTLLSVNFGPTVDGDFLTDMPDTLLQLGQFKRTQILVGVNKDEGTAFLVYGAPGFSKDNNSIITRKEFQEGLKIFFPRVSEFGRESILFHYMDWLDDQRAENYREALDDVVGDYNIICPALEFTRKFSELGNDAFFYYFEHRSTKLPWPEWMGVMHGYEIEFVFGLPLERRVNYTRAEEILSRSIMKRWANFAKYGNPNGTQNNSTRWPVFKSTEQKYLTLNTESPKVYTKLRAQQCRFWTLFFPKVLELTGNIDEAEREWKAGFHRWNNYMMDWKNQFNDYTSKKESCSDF
T3 sequence (O42275 24-633): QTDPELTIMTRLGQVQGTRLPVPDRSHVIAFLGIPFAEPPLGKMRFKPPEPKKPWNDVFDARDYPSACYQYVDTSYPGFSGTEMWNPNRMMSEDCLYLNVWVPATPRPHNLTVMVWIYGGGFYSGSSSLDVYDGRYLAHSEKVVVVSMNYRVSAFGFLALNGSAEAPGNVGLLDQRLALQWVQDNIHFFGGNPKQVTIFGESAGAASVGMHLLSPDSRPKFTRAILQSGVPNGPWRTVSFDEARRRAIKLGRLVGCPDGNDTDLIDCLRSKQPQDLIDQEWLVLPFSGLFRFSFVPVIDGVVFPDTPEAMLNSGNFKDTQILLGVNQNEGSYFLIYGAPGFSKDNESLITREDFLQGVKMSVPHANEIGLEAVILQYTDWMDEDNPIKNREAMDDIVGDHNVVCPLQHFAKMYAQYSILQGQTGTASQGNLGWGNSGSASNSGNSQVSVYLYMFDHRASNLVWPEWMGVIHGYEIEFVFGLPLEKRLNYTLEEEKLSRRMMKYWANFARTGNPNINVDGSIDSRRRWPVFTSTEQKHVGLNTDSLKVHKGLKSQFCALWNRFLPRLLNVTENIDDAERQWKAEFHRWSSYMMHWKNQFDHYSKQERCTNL
T2 sequence (P81908 whole entry): as the sequence (P81908 whole entry) above

Turning to `CC1=NN2C(=O)Oc3ccc(Br)cc3C2C1` (stereo not shown) [Compound 6g, 9-Bromo-2-methyl-1,10b-dihydro-5H-pyrazolo[1,5-c][1,3]benzoxazin-5-one], the viability at 24 h in data set [1] was > 90%. In addition, the “type of BuChE inhibition” value at eqBuChE (Lineweaver-Burk plots) is on record as “mixed-type inhibition”. Besides, the Ki at eqBuChE (Lineweaver-Burk secondary plots, inhibitor 5, 10 and 20 µM, read-out: dissociation constant Ki against BuChE) turned out to be 3090 nM. Moreover, the IC50 in data set [2] is 1.63 ± 0.34 µM. Moreover, the viability at 25 µM in data set [3] is > 70%. For the same compound, the logP at 24 h in data set [4] was 1.63. Further, the inhibition at 20 µM in data set [5] amounted to 26 ± 1%.
